# Measurements reported in US12661410B2, “Compounds for targeted degradation of RET” (C4 Therapeutics, Inc., priority 2020, dated 2026).
# Numbering of substitutions follows the chain as printed. Like-named read-outs stand apart in the source and are kept apart here.
# Legend:
# RET(KD: 658-1114 G810R) = target: T1, RET(KD: 658-1114 G810R) (Homo sapiens, UniProt P07949, G810R); assay: HiBiT-Degradation, RET G810R degradation assay (Nano-Glo HiBiT Lytic), 293T.165 cells; format: cell-based; conditions: for Emax / DC50: 6.0 hours
# T1 construct: 658-1114; expressed in transfected cells; host or cells: 293T.165 (293T cells, generated in-house)
# T1 sequence (P07949 658-1114 G810R): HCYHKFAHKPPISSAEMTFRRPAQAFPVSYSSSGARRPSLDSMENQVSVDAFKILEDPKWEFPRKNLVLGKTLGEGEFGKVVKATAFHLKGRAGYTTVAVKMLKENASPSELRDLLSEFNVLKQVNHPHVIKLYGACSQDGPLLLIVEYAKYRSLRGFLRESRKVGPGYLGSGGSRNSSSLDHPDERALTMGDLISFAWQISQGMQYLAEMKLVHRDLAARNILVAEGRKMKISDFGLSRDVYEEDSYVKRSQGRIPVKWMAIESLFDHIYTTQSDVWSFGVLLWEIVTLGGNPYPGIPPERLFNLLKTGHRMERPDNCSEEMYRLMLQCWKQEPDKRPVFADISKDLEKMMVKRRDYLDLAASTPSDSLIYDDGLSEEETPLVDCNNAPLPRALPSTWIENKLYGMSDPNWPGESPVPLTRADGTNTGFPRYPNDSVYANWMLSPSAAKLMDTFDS
# In short: (§1)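 Engineered 293T cells carry a HiBiT tag on the RET kinase domain, either wild type (line 293T.144) or G810R (line 293T.165). Compounds act for 6 h across a 10 μM-top, half-log 11-point range. Lytic HiBiT luminescence gives remaining protein, fitted for DC50 and Emax.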
# RET (658-1114) = target: T2, RET (658-1114) (Homo sapiens, UniProt P07949); assay: HiBiT-Degradation, RET wild-type degradation assay (Nano-Glo HiBiT Lytic), 293T.144 cells; format: cell-based; conditions: for DC50 / Emax: 6.0 hours
# T2 construct: 658-1114; expressed in transfected cells; host or cells: 293T.144 (293T cells, generated in-house)
# T2 sequence (P07949 658-1114): T1 sequence (P07949 658-1114 G810R) with R153G
# In short: as §1
# [1] = % remaining protein, read-out: 293T.165 RET(KD: 658-1114 G810R) 6.0 hours (Emax)
# [2] = half-maximal degradation concentration, read-out: 293T.165 RET(KD: 658-1114 G810R) 6.0 hours (DC50)
# [3] = HiBiT-Degradation, read-out: 293T.165 RET(KD: 658-1114 G810R) 6.0 hours (DC50)
# [4] = HiBiT-Degradation, read-out: 293T.144 RET (658-1114) 6.0 hours (DC50)
# [5] = HiBiT-Degradation, read-out: 293T.144 RET (658-1114) 6.0 hours (Emax)
# [6] = % remaining protein, read-out: 293T.144 RET (658-1114) 6.0 hours (Emax)
# [7] = half-maximal degradation concentration, read-out: 293T.144 RET (658-1114) 6.0 hours (DC50)
SMILES,Emax (RET(KD: 658-1114 G810R); [1]) [%],DC50 (RET(KD: 658-1114 G810R); [2]) [nM],293T.165 RET(KD: 658-1114 G810R) 6.0 hours (Emax) (RET(KD: 658-1114 G810R); HiBiT-Degradation),293T.165 RET(KD: 658-1114 G810R) 6.0 hours (IP) [nM] (RET(KD: 658-1114 G810R); HiBiT-Degradation),DC50 (RET(KD: 658-1114 G810R); [3]) [nM],293T.144 RET (658-1114) 6.0 hours (IP) [nM] (RET (658-1114); HiBiT-Degradation),DC50 (RET (658-1114); [4]) [nM],Emax (RET (658-1114); [5]) [%],293T.165 RET(KD: 658-1114 G810R) 6.0 hours (IP) [nM] (RET(KD: 658-1114 G810R)),293T.144 RET (658-1114) 6.0 hours (IP) [nM] (RET (658-1114)),Emax (RET (658-1114); [6]) [%],DC50 (RET (658-1114); [7]) [nM],HiBiT-Degradation 293T.165 RET(KD: 658-1114 G810R) 6.0 hours (IP) [nM] (RET(KD: 658-1114 G810R); RET G810R),"DC50 (RET(KD: 658-1114 G810R); RET G810R, read-out: HiBiT-Degradation 293T.165 RET(KD: 658-1114 G810R) 6.0 hours (DC50)) [nM]","Emax (RET(KD: 658-1114 G810R); RET G810R, read-out: HiBiT-Degradation 293T.165 RET(KD: 658-1114 G810R) 6.0 hours (Emax)) [%]",HiBiT-Degradation 293T.144 RET (658-1114) 6.0 hours (IP) [nM] (RET (658-1114); RET wild-type),"DC50 (RET (658-1114); RET wild-type, read-out: HiBiT-Degradation 293T.144 RET (658-1114) 6.0 hours (DC50)) [nM]","Emax (RET (658-1114); RET wild-type, read-out: HiBiT-Degradation 293T.144 RET (658-1114) 6.0 hours (Emax)) [%]"
"CC(C)(C)CC(=O)N1[C@@H]2COC[C@H]1CN(c1ccc(-c3nc(-c4cnn([C@H]5CC[C@@H](N6CCN(c7ccc(NC8CCC(=O)NC8=O)cc7F)CC6)CC5)c4)cn4ncc(C#N)c34)cn1)C2 (single isomer, unassigned) [Compound 158]",< 30,< 50,–,–,–,–,–,–,++++ (<50 nM = ++++),++++ (<50 nM = ++++),< 30,< 50,–,–,–,–,–,–
"N#Cc1cnn2cc(-c3cnn(C4CCN(C(=O)CN5CCC(c6ccc(NC7CCC(=O)NC7=O)cc6F)CC5)CC4)c3)cc(-c3ccc(N4CCC(Nc5ccccc5)CC4)nc3)c12 (centres unmarked) [Compound 46, 4-[6-(4-anilino-1-piperidyl)-3-pyridyl]-6-[1-[1-[2-[4-[4-[(2,6-dioxo-3-piperidyl)amino]-2-fluoro-phenyl]-1-piperidyl]acetyl]-4-piperidyl]pyrazol-4-yl]pyrazolo[1,5-a]pyridine-3-carbonitrile]",< 50,< 100,+++ (<50% = +++),++++ (< 50 nM = ++++),< 100,++++ (< 50 nM = ++++),< 50,< 30,–,–,–,–,–,–,–,–,–,–
"CN(Cc1ccc(-c2cn3ncc(C#N)c3c(-c3ccc(N4CCN(Cc5ccccn5)CC4)nc3)n2)cc1)C(=O)CN1CCC(c2ccc(NC3CCC(=O)NC3=O)cc2)CC1 (centres unmarked) [Compound 83, N-[[4-[3-cyano-4-[6-[4-(2-pyridylmethyl)piperazin-1-yl]-3-pyridyl]pyrazolo[1,5-a]pyrazin-6-yl]phenyl]methyl]-2-[4-[4-[(2,6-dioxo-3-piperidyl)amino]phenyl]-1-piperidyl]-N-methyl-acetamide]",< 50,< 100,–,–,–,–,–,–,–,–,–,–,++++ (< 50 nM = ++++),< 100,< 50,++++ (< 50 nM = ++++),< 50,< 30
"CCC1(c2ncccn2)CCN(c2ccc(-c3nc(-c4cnn([C@H]5CC[C@H](N6CCC(c7ccc(N[C@@H]8CCC(=O)NC8=O)cc7F)CC6)CC5)c4)cn4ncc(C#N)c34)cn2)CC1 (single isomer, unassigned) [Compound 140]",< 50,< 100,–,–,–,–,–,–,++++ (<50 nM = ++++),++++ (<50 nM = ++++),< 30,< 50,–,–,–,–,–,–
"CC(C)NC(=O)C1(C)CCN(c2ccc(-c3cc(-c4ccc(N5CCN(C(=O)CN6CCC(c7ccc(NC8CCC(=O)NC8=O)cc7F)CC6)CC5)cc4)cn4ncc(C#N)c34)cn2)CC1 (centres unmarked) [Compound 45, 1-[5-[3-cyano-6-[4-[4-[2-[4-[4-[(2,6-dioxo-3-piperidyl)amino]-2-fluoro-phenyl]-1-piperidyl]acetyl]piperazin-1-yl]phenyl]pyrazolo[1,5-a]pyridin-4-yl]-2-pyridyl]-N-isopropyl-4-methyl-piperidine-4-carboxamide]",< 30,< 100,++++ (< 30% = ++++),++++ (< 50 nM = ++++),< 100,++++ (< 50 nM = ++++),< 50,< 30,–,–,–,–,–,–,–,–,–,–
"CC(C)CC(=O)N1CCN(c2ccc(-c3nc(-c4cnn(C5CCN(C(=O)CC6CCN(c7ccc(NC8CCC(=O)NC8=O)cc7F)CC6)CC5)c4)cn4ncc(C#N)c34)cn2)CC1 (centres unmarked) [Compound 185, 6-(1-(1-(2-(1-(4-((2,6-dioxopiperidin-3-yl)amino)-2-fluorophenyl)piperidin-4-yl)acetyl)piperidin-4-yl)-1H-pyrazol-4-yl)-4-(6-(4-(3-methylbutanoyl)piperazin-1-yl)pyridin-3-yl)pyrazolo[1,5-a]pyrazine-3-carbonitrile]",< 50,< 100,–,–,–,–,–,–,++++ (<50 nM = ++++),++++ (<50 nM = ++++),< 30,< 50,–,–,–,–,–,–

# More lines, now with the values ahead:
Emax (RET(KD: 658-1114 G810R); [1]) [%],DC50 (RET(KD: 658-1114 G810R); [2]) [nM],293T.165 RET(KD: 658-1114 G810R) 6.0 hours (Emax) (RET(KD: 658-1114 G810R); HiBiT-Degradation),293T.165 RET(KD: 658-1114 G810R) 6.0 hours (IP) [nM] (RET(KD: 658-1114 G810R); HiBiT-Degradation),DC50 (RET(KD: 658-1114 G810R); [3]) [nM],293T.144 RET (658-1114) 6.0 hours (IP) [nM] (RET (658-1114); HiBiT-Degradation),DC50 (RET (658-1114); [4]) [nM],Emax (RET (658-1114); [5]) [%],293T.165 RET(KD: 658-1114 G810R) 6.0 hours (IP) [nM] (RET(KD: 658-1114 G810R)),293T.144 RET (658-1114) 6.0 hours (IP) [nM] (RET (658-1114)),Emax (RET (658-1114); [6]) [%],DC50 (RET (658-1114); [7]) [nM],HiBiT-Degradation 293T.165 RET(KD: 658-1114 G810R) 6.0 hours (IP) [nM] (RET(KD: 658-1114 G810R); RET G810R),"DC50 (RET(KD: 658-1114 G810R); RET G810R, read-out: HiBiT-Degradation 293T.165 RET(KD: 658-1114 G810R) 6.0 hours (DC50)) [nM]","Emax (RET(KD: 658-1114 G810R); RET G810R, read-out: HiBiT-Degradation 293T.165 RET(KD: 658-1114 G810R) 6.0 hours (Emax)) [%]",HiBiT-Degradation 293T.144 RET (658-1114) 6.0 hours (IP) [nM] (RET (658-1114); RET wild-type),"DC50 (RET (658-1114); RET wild-type, read-out: HiBiT-Degradation 293T.144 RET (658-1114) 6.0 hours (DC50)) [nM]","Emax (RET (658-1114); RET wild-type, read-out: HiBiT-Degradation 293T.144 RET (658-1114) 6.0 hours (Emax)) [%]",SMILES
< 30,< 100,++++ (< 30% = ++++),++++ (< 50 nM = ++++),< 100,++++ (< 50 nM = ++++),< 50,< 30,–,–,–,–,–,–,–,–,–,–,"N#Cc1cnn2cc(-c3ccc(N4CCN(C(=O)CN5CCC(c6ccc(NC7CCC(=O)NC7=O)cc6F)CC5)CC4)cc3)cc(-c3ccc(N4CCN(C(=O)Cc5ccc(F)cn5)CC4)nc3)c12 (centres unmarked) [Compound 16, 6-[4-[4-[2-[4-[4-[(2,6-dioxo-3-piperidyl)amino]-2-fluoro-phenyl]-1-piperidyl]acetyl]piperazin-1-yl]phenyl]-4-[6-[4-[2-(5-fluoro-2-pyridyl)acetyl]piperazin-1-yl]-3-pyridyl]pyrazolo[1,5-a]pyridine-3-carbonitrile]"
< 30,< 100,–,–,–,–,–,–,+++ (<100 nM = +++),++++ (<50 nM = ++++),< 30,< 50,–,–,–,–,–,–,"COc1ccc(CC2(C(=O)NC(C)C)CCN(c3ccc(-c4nc(-c5cnn([C@H]6CC[C@H](N7CCN(c8cc(OC)c(NC9CCC(=O)NC9=O)cc8F)CC7)CC6)c5)cn5ncc(C#N)c45)cn3)CC2)nc1 (some centres unmarked) [Compound 216, 1-[5-[3-cyano-6-[1-[4-[4-[4-[(2,6-dioxo-3-piperidyl)amino]-2-fluoro-5-methoxy-phenyl]piperazin-1-yl]cyclohexyl]pyrazol-4-yl]pyrazolo[1,5-a]pyrazin-4-yl]-2-pyridyl]-N-isopropyl-4-[(5-methoxy-2-pyridyl)methyl]piperidine-4-carboxamide]"
< 30,< 50,–,–,–,–,–,–,++++ (<50 nM = ++++),++++ (<50 nM = ++++),< 30,< 50,–,–,–,–,–,–,"CCC1(C(=O)NC(C)C)CCN(c2ccc(-c3nc(-c4cnn(C5CCN(C(=O)CC6(O)CCN(c7cc(OC)c(NC8CCC(=O)NC8=O)cc7F)CC6)CC5)c4)cn4ncc(C#N)c34)cn2)CC1 (centres unmarked) [Compound 91, 1-[5-[3-cyano-6-[1-[1-[2-[1-[4-[(2,6-dioxo-3-piperidyl)amino]-2-fluoro-5-methoxy-phenyl]-4-hydroxy-4-piperidyl]acetyl]-4-piperidyl]pyrazol-4-yl]pyrazolo[1,5-a]pyrazin-4-yl]-2-pyridyl]-4-ethyl-N-isopropyl-piperidine-4-carboxamide]"
